From US20230365647A1 (priority 2020, published 2023) come the findings set out here.

Where two headings read alike, the source gives them in different places. Where no end group is shown, it is not given here.

The target in data set [1] is T1, PLY (Streptococcus pneumoniae serotype 4, UniProt P0C2J9). The settings on record: for inhibition of PLY-induced hemolysis: human.
The target of data set [2] is T2, LLO (Listeria monocytogenes serotype 4a, UniProt B8DGM3). The settings on record: for inhibition of LLO-induced hemolysis: human.
For data set [3] the following is noted: mouse, in vivo.
The target in data set [4] is T1, PLY. It is filed as binding.
Data set [5] deals with T1, PLY. It is filed as cell-based.
Data set [6] has as its target T1, PLY. Type of data set: cell-based. This is another data set of the same source.
Data set [7] deals with T2, LLO. It is filed as cell-based.
The subject of data set [8] is pneumococcal strain T4 (TIGR4 of serotype 4). It is filed as binding.
Data set [9] deals with S. pneumoniae T4. It is filed as cell-based, Streptococcus pneumoniae.
Data set [10] deals with T1, PLY. Type of data set: cell-based. This is another data set of the same source.
The target of data set [11] is T1, PLY. It is filed as cell-based. This is another data set of the same source.
Data set [12] has as its system wild-type pneumococci T4 (TIGR4). Type of data set: cell-based.
Data set [13] concerns pneumococci, type 2 (D39) or type 4 (T4). It is filed as cell-based, Streptococcus pneumoniae.
Data set [14] relates to pneumococci of type 4 or type 2. Type of data set: cell-based, Streptococcus pneumoniae.
Another data set concerns S. pneumoniae T4R. Type of data set: cell-based.
Data set [15] relates to S. pneumoniae T4. Also on record: species or system zebrafish (Danio renio). The settings on record: in vivo.
Data set [16] deals with T2, LLO. It is filed as binding.
For data set [17], the system named is human THP-1 derived macrophages. It is filed as cell-based.

Take FTWSDGSPVSYEN [P2, FTWSDGSPVSYEN]: the “inhibition of PLY-induced hemolysis” value against PLY [1] is “up to 50%”. Also, the “inhibition of LLO-induced hemolysis” value at LLO [2] is given as approximately 35%. For the same sequence, in data set [3], the clinical symptoms result was “did not develop any clinical symptoms” and the “toxicity by lung histology analysis” value is “not toxic”.

DCTSAGRSDGWLW [CP1]: the “binding to PLY (ELISA)” value on PLY [4] was “only background levels of binding”. Moreover, the “PLY-induced hemolysis, residual red blood cell pellet” value on PLY [1] is “Complete hemolysis”. For the same sequence, the “LLO-induced hemolysis, residual red blood cell pellet” value on LLO [2] is given as “Complete hemolysis”.

As for LVGNIEQNEHSVI [CP2], on PLY [4], the “binding to PLY (ELISA)” value is reported as “only background levels of binding”. At PLY [5], the “protection of THP-1 macrophages from PLY cytolysis (live/dead stain)” value is “not”. The “cell death of macrophages induced by PLY (LDH release)” value on PLY [6] is given as “no significant effect”. For the same sequence, the “cell death of macrophages induced by LLO (LDH release)” value on LLO [7] is “no significant effect”. For the same sequence, the “binding of FITC-labelled peptide to PLY-producing strain T4” value in [8] is “did not show any binding”. Moreover, the “hemolytic activity of pneumococcal strain T4” value in the data set with S. pneumoniae T4 [9] is on record as “no effect”. Further, the “LDH release into the supernatant of lung tissue model” value at PLY [10] was “did not show any significant reduction”. Moreover, at PLY [11], the “release of IL-8 in lung tissue model” value was “not” and the “release of TNF-α in lung tissue model” value is on record as “not”. Besides, the “number of invading bacteria in lung epithelial model (CFU)” value in [12] is recorded as “not”. The “number of intracellular bacteria in DCs (CFU)” value in data set [13] is “did not show any significant difference”. Moreover, the “intracellular bacteria in DCs (fluorescence microscopy)” value in [14] is “not”. For the same sequence, in the data set with S. pneumoniae T4R, the “co-localization of intracellular T4R with autophagy marker LC3B” value is on record as “did not promote co-localization”. Also, the “survival of infected zebrafish embryos” value with S. pneumoniae T4 [15] is “did not show any significant effect”. Also, the “PLY-induced hemolysis, residual red blood cell pellet” value on PLY [1] is “Complete hemolysis”. The “LLO-induced hemolysis, residual red blood cell pellet” value on LLO [2] is listed as “Complete hemolysis”.

Regarding YENWAYGEPNNYQ [P3, YENWAYGEPNNYQ], the “binding to PLY (ELISA)” value on PLY [4] is “bind dose-dependently”. The “binding to LLO (ELISA)” value at LLO [16] is “bound dose-dependently”. In addition, the “cell death of macrophages induced by PLY (LDH release)” value on PLY [6] (18 h) was “significantly reduced cell death”. In addition, at LLO [7] (18 h), the “cell death of macrophages induced by LLO (LDH release)” value is given as “significantly reduced cell death”. In addition, in data set [17], the “release of IL-8” value is “significantly reduced”, the “release of IL-12” value is given as “significantly reduced” and the “release of TNF-α” value was “significantly reduced”. Further, at PLY [1], the “PLY-induced hemolysis, increasing concentrations of the peptides” value is recorded as “dose-dependently inhibited” and the “inhibition of PLY-induced hemolysis” value is recorded as “up to 50%”. For the same sequence, at LLO [2], the “inhibition of LLO-induced hemolysis” value was approximately 35%.
